In the NIST ThermoML archive (doi:10.1021/je400919u):
± gives the expanded uncertainty stated by the source.

Settings: Liquid, Closed cell (Static) method

FCC(F)(F)F [1,1,1,2-tetrafluoroethane]
Settings | vapor or sublimation pressure [kPa]
258.2 K | 162 ± 5
262.2 K | 193 ± 5
272.2 K | 286 ± 5
282.6 K | 411 ± 5
292.9 K | 569 ± 5
302.7 K | 763 ± 6

FC(F)(F)C1(F)OC1(F)F (stereo unspecified) [2,2,3-trifluoro-3-(trifluoromethyl)oxirane]
Settings | vapor or sublimation pressure [kPa]
273 K | 309 ± 5
278 K | 366 ± 6
283 K | 431 ± 6
288 K | 505 ± 6
293 K | 588 ± 6

O=C=O [carbon dioxide]
Settings | vapor or sublimation pressure [kPa]
273 K | 3387 ± 69
283 K | 4406 ± 89
293 K | 5627 ± 110
298.1 K | 6323 ± 130

FC(F)Cl [chlorodifluoromethane]
Settings | vapor or sublimation pressure [kPa]
273 K | 495 ± 5
275 K | 528 ± 5
277 K | 562 ± 5
279 K | 599 ± 5
281 K | 637 ± 5
283 K | 677 ± 5
285.1 K | 718 ± 6
286.9 K | 761 ± 6
289 K | 807 ± 6
291.1 K | 855 ± 6
295.1 K | 955 ± 6
